Source: publication PMC7931078 (Molecules, 2021)
≈ marks a conversion by molar mass, not a printed value. Entries after “also recorded” stand apart in the source; their conditions may differ. Where two headings read alike, the source gives them in different places.

Tests used:
[1] = system: Mycobacterium tuberculosis pMSp12::GFP; assay: microbe, parasite or virus in culture; type: cell-based
HEK293 cells = assay: In vitro cytotoxicity assay; type: cell-based; details: Homo sapiens, HEK293, read-out: IC50 HEK293
[2] = system: Trypanosoma brucei brucei 427 trypomastigotes; assay: In vitro anti-trypanosomal assay; type: cell-based; details: 24 h, 427 strain, read-out: IC50 T. b. brucei
Method: Trypanosoma brucei brucei 427 trypomastigotes were cultured in iscove’s modified Dulbecco’s medium (IMDM; Lonza, Basel, Switzerland) supplemented with 10% fetal calf serum, HMI-9 supplement, hypoxanthine and penicillin/streptomycin at 37 °C in a 5% CO2 incubator. Serial dilutions of test compounds were incubated with the parasites in 96-well plates for 24 h and residual parasite viability in the wells determined as previously reported.

[3] = system: 3D7 strain of Plasmodium falciparum; assay: In vitro antiplasmodial assay (pLDH); type: cell-based
S. aureus (MRSA) = assay: microbe, parasite or virus in culture; type: cell-based; details: Staphylococcus aureus, read-out: MIC against S. aureus (MRSA)
A. baumanni = assay: Antibacterial broth microdilution, A. baumanni; type: cell-based; details: read-out: MIC against A. baumanni
[4] = system: ESKAPE (E. faecium, A. baumanni, K. pneumoniae, P. aeruginosa, S. aureus) pathogens; assay: Antibacterial broth microdilution, ESKAPE pathogens; type: cell-based; details: colistin and vancomycin as standards
[5] = Mycobacterium tuberculosis, H37RV, 336 h
[6] = Plasmodium falciparum, 3D7, 48 h, read-out: IC50 Pf 3D7, chloroquine sensitive strain 3D7, 48 h, pLDH
[7] = read-out: IC50 Pf 3D7, chloroquine sensitive strain 3D7, 48 h, pLDH

SMILES | MIC90 [1, 5] | IC50 (HEK293 cells) | IC50 ([2]; Trypanosoma brucei) | IC50 [3, 6] | MIC (S. aureus (MRSA)) | MIC (A. baumanni) | activity against ESKAPE pathogens (in words) [4] | IC50 [2] | MIC90 [1] | IC50 [3, 7] | IC50 Pf 3D7 ([3]; chloroquine sensitive strain 3D7, 48 h, pLDH) | melting point
CCOC(=O)c1cn(CC)c2ccc(OCc3ccc(C(F)(F)F)cc3)cc2c1=O [Compound 7a, Ethyl 1-ethyl-4-oxo-6-((4-(trifluoromethyl)benzyl)oxy)-1,4-dihydroquinolone-3-carboxylate] | > 125 µM | > 32 µg/mL | 18.5 µM |  |  |  |  |  |  |  |  | 
CCn1cc(C(=O)NCCOCCO)c(=O)c2cc(OCc3ccc(C(F)(F)F)cc3)c(Cl)cc21 [Compound 8d, 7-Chloro-1-ethyl-N-(2-(2-hydroxyethoxy)ethyl)-4-oxo-6-((4-(trifluoromethyl)benzyl)oxy)-1,4-dihydroquinolone-3-carboxamide] | > 125 µM | > 32 µg/mL | > 20 µM | > 20 µM |  |  |  |  |  |  |  | 
CCn1cc(C(=O)NCCNCCO)c(=O)c2cc(OCc3ccc(C(F)(F)F)cc3)c(Cl)cc21 [Compound 8c, 7-Chloro-1-ethyl-N-(2-((2-hydroxyethyl)amino)ethyl)-4-oxo-6-((4-(trifluoromethyl)benzyl)oxy)-1,4-dihydroquinolone-3-carboxamide] |  | > 32 µg/mL | < 2 µM |  | 16 µg/mL (≈ 31.3 µM) | 32 µg/mL (≈ 62.5 µM) | moderate to poor activity; also recorded: moderate to weak, narrow spectrum activity | 1.5 µM |  |  |  | 
Cn1c(=O)c2c(ncn2Cc2ccc3c(c2)c(=O)c(C(=O)NCCOCCO)cn3Cc2ccc(Br)cc2)n(C)c1=O [Compound 4h, 1-(4-Bromobenzyl)-6-((1,3-dimethyl-2,6-dioxo-1,2,3,6-tetrahydro-7H-purin-7-yl)methyl)-N-(2-(2-hydroxyethoxy)ethyl)-4-oxo-1,4-dihydroquinolone-3-carboxamide] | > 125 µM | > 32 µg/mL | > 20 µM | 0.68 µM |  |  |  |  | >125 µM |  |  | 
CCn1cc(C(=O)NCCNCCO)c(=O)c2cc(Cn3cnc4c3c(=O)n(C)c(=O)n4C)ccc21 [Compound 4a, 6-((1,3-Dimethyl-2,6-dioxo-1,2,3,6-tetrahydro-7H-purin-7-yl)methyl)-1-ethyl-N-(2-((2-hydroxyethyl)amino)ethyl)-4-oxo-1,4-dihydroquinolone-3-carboxamide] | > 125 µM | > 32 µg/mL | > 20 µM | > 20 µM |  |  |  |  | >125 µM |  |  | 
CCOC(=O)c1cn(Cc2ccccc2)c2ccc(N)cc2c1=O [Compound 12, Ethyl 6-amino-1-benzyl-4-oxo-1,4-dihydroquinolone-3-carboxylate] | > 125 µM | > 32 µg/mL | > 20 µM | 10 µM |  |  |  |  |  |  |  | 
CCOC(=O)c1cn(Cc2ccccc2)c2ccc(/N=C/c3ccc([N+](=O)[O-])o3)cc2c1=O [Compound 13, Ethyl-1-benzyl-6-(((5-nitrofuran-2-yl)methylene)amino)-4-oxo-1,4-dihydroquinolone-3-carboxylate] | 8 µM (≈ 3.56 µg/mL) | > 32 µg/mL | 5.2 µM | < 10 µM |  | 16 µg/mL (≈ 35.9 µM) | moderate to poor activity; also recorded: moderate to weak, narrow spectrum activity |  | 8.0 µM (≈ 3.56 µg/mL) | 6.5 µM |  | 
COCCNC(=O)c1cn(Cc2ccccc2)c2ccc(Cn3cnc4c3c(=O)n(C)c(=O)n4C)cc2c1=O [Compound 4f, 1-Benzyl-6-((1,3-dimethyl-2,6-dioxo-1,2,3,6-tetrahydro-7H-purin-7-yl)methyl)-N-(2-methoxyethyl)-4-oxo-1,4-dihydroquinolone-3-carboxamide] | > 125 µM | > 32 µg/mL | > 20 µM | > 20 µM |  |  |  |  |  |  |  | 
Cn1c(=O)c2c(ncn2Cc2ccc3c(c2)c(=O)c(C(=O)NCCOCCO)cn3Cc2ccccc2)n(C)c1=O [Compound 4e, 1-Benzyl-6-((1,3-dimethyl-2,6-dioxo-1,2,3,6-tetrahydro-7H-purin-7-yl)methyl)-N-(2-(2-hydroxyethoxy)ethyl)-4-oxo-1,4-dihydroquinolone-3-carboxamide] | > 125 µM | > 32 µg/mL | 26.8 µM | ≥ 25 µM |  |  |  |  |  | > 20 µM |  | 
CCOC(=O)c1cn(Cc2ccc(Br)cc2)c2ccc(Cn3cnc4c3c(=O)n(C)c(=O)n4C)cc2c1=O [Compound 3d, Ethyl 1-(4-bromobenzyl)-6-((1,3-dimethyl-2,6-dioxo-1,2,3,6-tetrahydro-7H-purin-7-yl)methyl)-4-oxo-1,4-dihydroquinolone-3-carboxylate] | 15.6 µM (≈ 9.02 µg/mL) | > 32 µg/mL | 21.6 µM | 13.6 µM |  |  |  |  |  |  |  | 
Cn1c(=O)c2c(ncn2Cc2ccc3c(c2)c(=O)c(C(=O)NCCNCCO)cn3Cc2ccccc2)n(C)c1=O [Compound 4d, 1-Benzyl-6-((1,3-dimethyl-2,6-dioxo-1,2,3,6-tetrahydro-7H-purin-7-yl)methyl)-N-(2-((2-hydroxyethyl)amino)ethyl)-4-oxo-1,4-dihydroquinolone-3-carboxamide] | 7.9 µM (≈ 4.41 µg/mL) | > 32 µg/mL | > 20 µM | ≥ 25 µM |  |  |  |  |  | > 20 µM |  | 
CCn1cc(C(=O)NCCOCCO)c(=O)c2cc(Cn3cnc4c3c(=O)n(C)c(=O)n4C)ccc21 [Compound 4b, 6-((1,3-Dimethyl-2,6-dioxo-1,2,3,6-tetrahydro-7H-purin-7-yl)methyl)-1-ethyl-N-(2-(2-hydroxyethoxy)ethyl)-4-oxo-1,4-dihydroquinolone-3-carboxamide] | > 125 µM | > 32 µg/mL | > 20 µM | > 20 µM |  |  |  |  |  |  |  | 
Nc1ccc2c(c1)c(=O)c(C(=O)NCCOCCO)cn2Cc1ccccc1 [Compound 14, 6-Amino-1-benzyl-N-(2-(2-hydroxyethoxy)ethyl)-4-oxo-1,4-dihydroquinolone-3-carboxamide] | > 125 µM | > 32 µg/mL | > 20 µM | > 20 µM |  |  |  |  | >125 µM |  | complete loss of antiplasmodial activity | 
CCOC(=O)c1cn(Cc2ccccc2)c2ccc(Cn3cnc4c3c(=O)n(C)c(=O)n4C)cc2c1=O [Compound 3c, Ethyl 1-benzyl-6-((1,3-dimethyl-2,6-dioxo-1,2,3,6-tetrahydro-7H-purin-7-yl)methyl)-4-oxo-1,4-dihydroquinolone-3-carboxylate] | > 125 µM | > 32 µg/mL | 14.5 µM | > 20 µM |  |  |  |  |  |  |  | 
CCn1cc(C(=O)NCCOCCO)c(=O)c2cc(OCc3ccc(C(F)(F)F)cc3)ccc21 [Compound 8a, 1-Ethyl-N-(2-(2-hydroxyethoxy)ethyl)-4-oxo-6-((4-(trifluoromethyl)benzyl)oxy)-1,4-dihydroquinolone-3-carboxamide] | 7.8 µM (≈ 3.73 µg/mL) | > 32 µg/mL | 14.1 µM | < 10 µM |  |  |  |  |  | 6.8 µM |  | 
CCOC(=O)c1cn(CC)c2ccc(Cn3cnc4c3c(=O)n(C)c(=O)n4C)cc2c1=O [Compound 3a, Ethyl 6-((1,3-dimethyl-2,6-dioxo-1,2,3,6-tetrahydro-7H-purin-7-yl)methyl)-1-ethyl-4-oxo-1,4-dihydroquinolone-3-carboxylate] | > 125 µM | > 32 µg/mL | > 20 µM | > 20 µM |  |  |  |  | >125 µM |  |  | 
O=C(NCCOCCO)c1cn(Cc2ccccc2)c2cc(Cl)c(OCc3ccc(C(F)(F)F)cc3)cc2c1=O [Compound 8h, 1-Benzyl-7-chloro-N-(2-(2-hydroxyethoxy)ethyl)-4-oxo-6-((4-(trifluoromethyl)benzyl)oxy)-1,4-dihydroquinolone-3-carboxamide] | 16 µM (≈ 9.2 µg/mL) | > 32 µg/mL | > 20 µM | > 20 µM |  |  |  |  |  |  |  | 
O=C(NCCNCCO)c1cn(Cc2ccccc2)c2cc(Cl)c(OCc3ccc(C(F)(F)F)cc3)cc2c1=O [Compound 8g, 1-Benzyl-7-chloro-N-(2-((2-hydroxyethyl)amino)ethyl)-4-oxo-6-((4-(trifluoromethyl)benzyl)oxy)-1,4-dihydroquinolone-3-carboxamide] | 0.9 to 2 µM (≈ 0.517 to 1.15 µg/mL) | > 32 µg/mL |  | 0.4 µM | 32 µg/mL (≈ 55.7 µM) |  | moderate to poor activity; also recorded: moderate to weak, narrow spectrum activity |  | 0.9 µM (≈ 0.517 µg/mL) | 0.46 µM |  | 
Cn1c(=O)c2c(ncn2Cc2ccc3c(c2)c(=O)c(C(=O)NCCNCCO)cn3Cc2ccc(Br)cc2)n(C)c1=O [Compound 4g, 1-(4-Bromobenzyl)-6-((1,3-dimethyl-2,6-dioxo-1,2,3,6-tetrahydro-7H-purin-7-yl)methyl)-N-(2-((2-hydroxyethyl)amino)ethyl)-4-oxo-1,4-dihydroquinolone-3-carboxamide] | 7.9 µM (≈ 5.03 µg/mL) | > 32 µg/mL | > 20 µM |  |  |  |  |  |  |  |  | 
CCn1cc(C(=O)OC)c(=O)c2cc(C(=O)/C=C/c3c(Cl)cccc3Cl)ccc21 [Compound 16, Methyl (E)-Methyl-6-(3-(2,6-dichlorophenyl)acryloyl)-1-ethyl-4-oxo-1,4-dihydroquinolone-3-carboxylate] | 0.9 to 2 µM (≈ 0.387 to 0.861 µg/mL) | > 32 µg/mL | < 2 µM | 11.7 µM |  |  |  | 1.5 µM | 0.9 µM (≈ 0.387 µg/mL) |  |  | 247 to 249 °C
CCOC(=O)c1cn(CC)c2ccc([N+](=O)[O-])cc2c1=O [Compound 11, Ethyl 1-ethyl-6-nitro-4-oxo-1,4-dihydroquinolone-3-carboxylate] | 31.3 µM (≈ 9.09 µg/mL) | > 32 µg/mL | > 20 µM | > 20 µM |  |  |  |  |  |  |  | 
